Data published in publication PMC8280143, “A novel dephosphorylation targeting chimera selectively promoting tau removal in tauopathies” (Signal Transduction and Targeted Therapy, 2021).
“Also recorded” adds a separate entry of the source.

Assays:
[1] = system: tau aggregation; assay: Thioflavin T staining of tau aggregation in the DG of Tau368 mice; type: in vivo, mouse; details: DEPTAC for a consecutive month after stopping dox; **p < 0.01, n = 4–5 mice
Protocol: (§1) For 2-month male C57BL/6 mice, 10 mM FITC-labeled or unlabeled-DEPTAC were directly injected through the tail vein or lateral ventricle for the evaluation of BBB-penetrability. For 9-month 3×Tg AD mice or Tau368 (20–30 g body weight), unlabeled-DEPTAC (5 mM, 1 μL for each time) was delivered for once into the lateral ventricle through direct stereotaxic injection, or repeatedly administrated through guiding cannulas (RWD, Shenzhen, China) implanted into the lateral ventricle once every 3 days for a consecutive month to test its dephosphorylation efficiency. Mice were restricted in a custom designed device and stayed awake during drug administration, and sacrificed at 24 h post the single or last DEPTAC administration.
Free-floating brain sections were washed with Tris-buffered saline (TBS) for 3 × 5 min, and then incubated with 0.3% Thioflavin T (Sigma) dissolved in 50% ethanol at room temperature for 10 min. The sections were then decolorized in 50% ethanol for 3 × 5 min, washed in TBS, and subsequently co-stained with DAPI for 10 min.

[2] = system: tau; assay: Hippocampal phospho-tau and total tau in 3×Tg AD mice; type: in vivo, mouse; details: 9-month 3×Tg AD mice, 5 mM, 1 μL
Protocol: Mice weighting 20–30 g were anesthetized with 1% pentobarbital sodium (35 mg/kg), and fixed in a stereotaxic instrument (RWD). The scalp was sterilized with iodophors and 75% ethanol, and incised along the skull midline. Holes were drilled. Adeno-associated virus or DEPTAC was injected into the dorsal DG (posterior 1.9 mm, lateral ±1.1 mm from the bregma, ventral −2.0 from the skull) or lateral ventricle (posterior 0.22 mm, lateral ±1.0 mm from the bregma, ventral −2.5 from the skull), respectively, using an automatic microinjection system (World Precision Instruments, USA) at a rate of 0.05 μL/min. The needle syringe was left in place for 5 min before withdrawal. The skin was sutured and sterilized with iodophors. Mice were placed on thermos tank for analepsia.
as §1
(§2) Cultured cells or hippocampus tissues were collected on ice, and homogenized with RIPA lysis buffer containing 50 mM Tris-HCl, 100 mM NaCl, 1% Triton X-100, 5 mM EDTA, and 1:100 PMSF, and then centrifuged at 12,000 × g for 20 min. The supernatant was collected for the analysis of soluble proteins. In some experiments, the pellets were further incubated with 8% SDS buffer at 37 °C and then ultrasound for 60 times to reach a complete resuspension for the analysis of insoluble tau. Protein concentration was measured through BCA assays (Thermo Fisher). Equal amount of protein from each sample were separated in SDS-PAGE gels, and then transferred onto nitrocellulose or 0.22 μm polyvinylidene fluoride membranes (Merck Millipore). […] Blots were visualized using ECL luminol reagent (P0018FS, Beyotime), and quantified using ImageJ software.

[3] = system: human tau in HEK293(hTau) cells; assay: Tau dephosphorylation and reduction in hTau-expressed HEK293 cells; type: cell-based; details: Supplementary Fig. S4; by contrast to neurons
Protocol: HEK293 cells with stable expression of wild-type full-length human tau (term as HEK293(hTau) cells), were cultured in DMEM (Hyclone, SH30022.01) containing 10% fetal bovine serum (Biological Industries, 04–001-1ACS) and […] G418 (Thermo Fisher Scientific, 10,131,027) under 5% CO2, 37 °C.
as §2

[4] = system: MAP2; assay: MAP2 level in primary neurons; type: cell-based
Protocol: as §2

[5] = system: Tau368 mice; assay: Novel-object recognition test; type: in vivo, mouse
Protocol: Novel-object recognition tests were performed one day after the object-place recognition. A similar protocol was used except that object B was replaced by a novel object (object C) in the test phase, and mice preference for the novel object was measured.

[6] = system: human tau (hTau); assay: Western blotting of tau in primary neurons with hTau overexpression in the presence of MG132; type: cell-based
Protocol: Primary hippocampal neurons were prepared from E12–E15 days SD rat embryos. Briefly, pregnant rats were acutely executed, hippocampus was dissected on ice and gently minced in DME/F12 (Hyclone) then suspended in 0.125% (vol/vol) trypsin solution at 37 °C for 20 min. Enzymatic activity was stopped by fetal bovine serum. Neurons were initially kept in 10% FBS-containing DME/F12 for 4–6 h, and subsequently cultured in Neurobasal (Hyclone) with 2% B27, 1% glutamax and 1% penicillin–streptomycin (Thermo Fisher Scientific) in dishes pre-coated with 100 μg/mL poly-D-lysine. Serum was gradually removed by replacing half of the medium for each time within the following 2 days. Especially, to inhibit the proteasome-dependent proteolysis, the cultured hippocampal neurons were treated with 5 μM MG132 for 5 h before harvest.
Cultured cells or hippocampus tissues were collected on ice, and homogenized with RIPA lysis buffer containing 50 mM Tris-HCl, 100 mM NaCl, 1% Triton X-100, 5 mM EDTA, and 1:100 PMSF, and then centrifuged at 12,000 × g for 20 min. The supernatant was collected for the analysis of soluble proteins. In some experiments, the pellets were further incubated with 8% SDS buffer at 37 °C and then ultrasound for 60 times to reach a complete resuspension for the analysis of insoluble tau. Protein concentration was measured through BCA assays (Thermo Fisher). Equal amount of protein from each sample were separated in SDS-PAGE gels, and then transferred onto nitrocellulose or 0.22 μm polyvinylidene fluoride membranes (Merck Millipore). The membranes were blocked with 5% BSA, and incubated in turn with primary and horseradish peroxidase-conjugated secondary antibodies: pS199-Tau (44734G, Invitrogen, 1:2000), pT205-Tau (11108-1, Signalway, 1:2000), pS396-Tau (11102, Signalway, 1:2000), pS404-Tau (11112, Signalway, 1:2000), AT8 (MN1020, Thermo Fisher, 1:1000), Tau5 (ab80579, Abcam, 1:1000), Tau46 (T9450, Sigma, 1:1000), PP2A-Bα (4953, Cell signaling, 1:1000), Phospho-Ser/Thr (ab17464, Abcam1:1000), Ubiquitin (ab7254, Abcam, 1:1000), MAP2 (AB5622, Millipore, 1:2000), hTau-N368 (a generous gift from Prof. Keqiang Ye, Emory University School of Medicine, 1:1000), DEPTAC (developed by Daian Biotechnology, Wuhan, China, 1:500), β-actin (ab6276, Abcam, 1:2000). HRP-conjugated goat anti-rabbit IgG (A0208, Beyotime, 1:3000), HRP-conjugated goat anti-mouse IgG (A0216, Beyotime, 1:3000). Blots were visualized using ECL luminol reagent (P0018FS, Beyotime), and quantified using ImageJ software.

[7] = intracerebroventricular, once every 3 days for a consecutive month, *p < 0.05, n = 4
[8] = 5 μM MG132 for 5 h before harvest, *p < 0.05, n = 3 cell wells

(1) YQQYQDATADEQG, originates from the porcine β-tubulin 422–434 for recognizing and binding tau proteins.[5],[6] (2) GSGS, a linker for increasing the flexibility of the peptide.[15] (3) KKVAVVRTPPKSP, for recruiting PP2A-Bα,[16] and (4) RRRRRRRR [DEPTAC, DEPhosphorylation TArgeting Chimera; 38 amino acid residues, C185H314N72O56]
thioflavin T (ThT)-stained tau aggregation in the DG [1]: ameliorated
hippocampal phospho-tau, repeated delivery [2, 7]: significantly reduced
hippocampal total tau, repeated delivery [2, 7]: significantly reduced
hippocampal phospho-tau, delivered for once ([2]; once, n = 4): tended to decrease; also recorded: relatively limited
hippocampal total tau, delivered for once ([2]; once, n = 4): tended to decrease; also recorded: relatively limited
effectiveness in dephosphorylating and reducing tau in hTau-expressed HEK293 cells [3]: relatively limited effectiveness
level of MAP2 ([4]; Supplementary Fig. S3, specificity to tau): did not change
selectivity to tau proteins ([4]; discussion): considerable selectivity to tau proteins
novel-object recognition in control mice ([5]; Tau368 mice treated with NW): only limitedly affected
novel-object recognition impairment ([5]; dox-treated Tau368 mice, 1-month DEPTAC after stopping dox, *p < 0.05, n = 10–15 mice): remarkably ameliorated; also recorded: rescued
efficiency of tau dephosphorylation in the presence of MG132 ([6]; 5 μM MG132, compared with absence of MG132, n = 3 cell wells): reduced efficiency; also recorded: less efficiency
reduction of total tau (Tau5 and Tau46) in the presence of MG132 ([6]; 5 μM MG132 for 5 h before harvest): abolished
tau dephosphorylation at AT8 epitope in the presence of MG132 [6, 8]: still significant
tau dephosphorylation at pT205 in the presence of MG132 [6, 8]: still significant
